{"source": "paper PMC9995905", "about": "“Characteristics of antimicrobial peptide OaBac5mini and its bactericidal mechanism against Escherichia coli” (Frontiers in Veterinary Science, 2023)", "key": {"proteinase K": {"biological_target": "T1, proteinase K (Parengyodontium album, UniProt P06873)", "T1 construct": "purchased Solarbio, China", "T1 sequence (P06873 106-384)": "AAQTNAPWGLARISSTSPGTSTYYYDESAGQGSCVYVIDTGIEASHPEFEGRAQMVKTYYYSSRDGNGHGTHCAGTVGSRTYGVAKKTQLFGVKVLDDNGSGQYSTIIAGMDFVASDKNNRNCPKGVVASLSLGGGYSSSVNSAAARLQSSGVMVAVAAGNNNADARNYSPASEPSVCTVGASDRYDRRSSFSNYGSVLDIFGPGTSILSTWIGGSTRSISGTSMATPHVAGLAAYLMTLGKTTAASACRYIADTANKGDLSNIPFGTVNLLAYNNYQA", "assay": "Digestive enzyme sensitivity (inhibition zone assay)", "assay_type": "in vitro ADME", "conditions": "100 μg/ml protease K, 37°C, 3 h; 50 μg/ml peptide; inhibition zone assay against E. coli ATCC 25922; repeated three times", "excerpt": "(§1) All experiments were repeated three times."}, "pepsin": {"biological_target": "T2, pepsin (Sus scrofa, UniProt P00791)", "T2 construct": "purchased sigma, USA", "T2 sequence (P00791 60-385)": "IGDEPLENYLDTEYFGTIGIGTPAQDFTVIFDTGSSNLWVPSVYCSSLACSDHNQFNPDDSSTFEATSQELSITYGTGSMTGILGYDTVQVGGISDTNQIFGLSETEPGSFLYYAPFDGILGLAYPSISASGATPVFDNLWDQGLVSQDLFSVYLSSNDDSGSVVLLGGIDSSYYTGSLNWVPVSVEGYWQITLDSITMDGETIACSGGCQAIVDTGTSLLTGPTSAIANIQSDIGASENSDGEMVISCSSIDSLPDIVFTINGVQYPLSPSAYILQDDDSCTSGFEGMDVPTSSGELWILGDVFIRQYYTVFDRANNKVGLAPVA", "assay": "Digestive enzyme sensitivity (inhibition zone assay)", "assay_type": "in vitro ADME", "conditions": "100 μg/ml pepsin in pH 2 sterile water, 37°C, 3 h; 50 μg/ml peptide; inhibition zone assay against E. coli ATCC 25922; repeated three times", "excerpt": "as §1"}, "Gram-negative bacteria": {"test_system": "Gram-negative bacteria", "conditions": "cited from earlier work", "excerpt": "(§2) Antimicrobial peptides (AMPs) are small molecular peptides in living organisms and serve as natural barriers against the invasion of pathogenic microorganisms ([5]). They are often referred to as cationic host defense peptides (HDPs) or cationic antimicrobial peptides (CAMPs) ([6]). Cathelicidins are one of the best characterized AMP families. Each cathelicidin includes an N-terminal signal domain, a cathelin-like domain, and an antimicrobial C-terminal domain ([7]). Among them, the proline-rich antibacterial peptides (PrAMPs) have been attracting the close attention of researchers due to thei ..."}, "[1]": {"test_system": "Gram-positive bacteria and C. albicans", "conditions": "cited from earlier work", "excerpt": "as §2"}, "E. coli ATCC 25922 [2]": {"test_system": "E. coli ATCC 25922", "assay_type": "cell-based, Escherichia coli"}, "E. coli ATCC 25922 [3]": {"test_system": "E. coli ATCC 25922", "assay": "Time-kill curve", "assay_type": "cell-based, Escherichia coli", "conditions": "MH broth, 37°C, 5×10^5 CFU/ml, triplicate", "procedure": "To investigate the time-kill effect of OaBac5mini against E. coli ATCC 25922, bacteria (5×10^5 CFU/ml) were cultured in fresh Mueller-Hinton (MH) broth (Yashi Organisms, China) with different concentrations of OaBac5mini (0, 50, 100, and 200 μg/ml) at 37°C with shaking at the speed of 220 rpm. Equal amounts (100 μl) of E. coli ATCC 25922 from each sample were withdrawn at 0, 2, 4, 6, 8, 10, 12, and 24 h, diluted with Luria-Bertani (LB) broth (Solarbio, China) and plated onto LB agar plates. Plates were placed at 37°C for 18 h for the CFU counts."}, "E. coli ATCC 25922 [4]": {"test_system": "E. coli ATCC 25922", "assay": "Permeability of the outer membrane (NPN uptake)", "assay_type": "cell-based, Escherichia coli", "conditions": "25, 50, 100 and 200 μg/ml; 10 μM NPN; 60 min; P < 0.01; n = 3", "procedure": "The NPN uptake assay was conducted following the instructions of […] and […] ([25]) with minor modifications. In brief, E. coli. […] Fluorescence units were monitored immediately using INFINITE 200 PRO (Infinite® 2000, TECAN, Austria) at the excitation wavelength of 350 nm and emission wavelength of 420 nm for 100 min at 5 min intervals. Experiments were performed in biological triplicate."}}, "note": "Entries after “also recorded” stand apart in the source; their conditions may differ. Where no end group is shown, it is not given here."}
{"sequence": "RFRPPIRRPPIRPPFRPPFRPPVR [OaBac5mini]", "values": [{"measurement": "Antibacterial activity after treatment with proteinase K", "setting": "proteinase K", "value": "stable antibacterial activity; also recorded: no significant effect"}, {"measurement": "Antibacterial activity after treatment with pepsin", "setting": "pepsin", "value": "stable antibacterial activity; also recorded: not significantly affected"}, {"measurement": "MICs against Gram-negative bacteria", "setting": "Gram-negative bacteria", "value": "0.125 to 8", "unit": "µg/mL"}, {"measurement": "MICs against Gram-positive bacteria and C. albicans", "setting": "[1]", "value": "16 to 64", "unit": "µg/mL"}, {"measurement": "Increase of MIC in the presence of physiological concentration of CaCl2", "setting": "E. coli ATCC 25922 [2]; 2.5 mM CaCl2 versus MH broth alone, E. coli ATCC 25922", "value": "four-fold"}, {"measurement": "MIC against E. coli ATCC 25922 in MH broth", "setting": "E. coli ATCC 25922 [2]; ATCC 25922", "value": 25, "unit": "µg/mL"}, {"measurement": "MIC against E. coli ATCC 25922 in MH broth + CaCl2", "setting": "E. coli ATCC 25922 [2]; ATCC 25922", "value": 100, "unit": "µg/mL"}, {"measurement": "MIC against E. coli ATCC 25922 in MH broth + FeCl3", "setting": "E. coli ATCC 25922 [2]; ATCC 25922", "value": 16.67, "unit": "µg/mL"}, {"measurement": "MIC against E. coli ATCC 25922 in MH broth + KCl", "setting": "E. coli ATCC 25922 [2]; ATCC 25922", "value": 20.83, "unit": "µg/mL"}, {"measurement": "MIC against E. coli ATCC 25922 in MH broth + MgCl2", "setting": "E. coli ATCC 25922 [2]; ATCC 25922", "value": 50, "unit": "µg/mL"}, {"measurement": "MIC against E. coli ATCC 25922 in MH broth + NH4Cl", "setting": "E. coli ATCC 25922 [2]; ATCC 25922", "value": 12.5, "unit": "µg/mL"}, {"measurement": "MIC against E. coli ATCC 25922 in MH broth + NaCl", "setting": "E. coli ATCC 25922 [2]; ATCC 25922", "value": 33.33, "unit": "µg/mL"}, {"measurement": "Time-kill effect at 50 μg/ml (2 × MIC)", "setting": "E. coli ATCC 25922 [3]; 50 μg/ml, 24 h", "value": "the number of bacteria remained stable in the first co-incubation for 8h before it increased"}, {"measurement": "Time-kill effect at 100 μg/ml", "setting": "E. coli ATCC 25922 [3]; 100 μg/ml, 24 h", "value": "decrease after co-incubation for 12 h and increase in further co-incubation for 12 h"}, {"measurement": "Time-kill effect at 200 μg/ml (8 × MIC)", "setting": "E. coli ATCC 25922 [3]; 200 μg/ml, co-incubation for 12 h", "value": "could effectively kill; also recorded: effectively killed"}, {"measurement": "Average fluorescence intensity of NPN (outer membrane permeability) compared with the negative control", "setting": "E. coli ATCC 25922 [4]", "value": "significantly increased"}]}
